{"source": "PubChem BioAssay AID256", "about": "(DTP/NCI, 2004)", "test_system": "CD2F1 mice, L1210 leukemia ip, survival T/C", "experiment": "NCI In Vivo Anticancer Drug Screen. Data for tumor model L1210 Leukemia (intraperitoneal) in CD2F1 (CDF1) mice", "settings": "higher = longer survival", "procedure,_shortened": "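Compound-dosed mice with transplantable tumor versus matched vehicle controls; endpoint ratio T/C reported.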", "note": "Several values for one entry are separate records, joined by “and”; a condition that tells them apart may be missing. Identical values can stand only once. Toxic doses and inconclusive results are not listed."}
{"smiles": "CNNCc1ccc(C(=O)NC(N)=O)cc1", "values": [{"measurement": "T/C", "setting": "endpoint: mean survival time, dose: 8.0 mg/kg/injection, schedule: Q03HX024 (ip), vehicle: saline", "result": "124 % of control"}, {"measurement": "T/C", "setting": "endpoint: mean survival time, dose: 16.0 mg/kg/injection, schedule: Q01DX005 (iv), vehicle: saline", "result": "123 % of control"}, {"measurement": "T/C", "setting": "endpoint: mean survival time, dose: 16.0 mg/kg/injection, schedule: Q03HX008 (ip), vehicle: saline", "result": "112 % of control"}, {"measurement": "T/C", "setting": "endpoint: mean survival time, dose: 16.0 mg/kg/injection, schedule: Q03HX016 (ip), vehicle: saline", "result": "110 % of control"}, {"measurement": "T/C", "setting": "endpoint: mean survival time, dose: 16.0 mg/kg/injection, schedule: Q03HX024 (ip), vehicle: saline", "result": "124 % of control"}, {"measurement": "T/C", "setting": "endpoint: mean survival time, dose: 32.0 mg/kg/injection, schedule: Q01DX005 (iv), vehicle: saline", "result": "119 % of control"}, {"measurement": "T/C", "setting": "endpoint: mean survival time, dose: 32.0 mg/kg/injection, schedule: Q01DX008 (ip), vehicle: saline", "result": "119 % of control"}, {"measurement": "T/C", "setting": "endpoint: mean survival time, dose: 32.0 mg/kg/injection, schedule: Q03HX008 (ip), vehicle: saline", "result": "115 % of control"}, {"measurement": "T/C", "setting": "endpoint: mean survival time, dose: 32.0 mg/kg/injection, schedule: Q03HX016 (ip), vehicle: saline", "result": "120 % of control"}, {"measurement": "T/C", "setting": "endpoint: mean survival time, dose: 64.0 mg/kg/injection, schedule: Q01DX005 (iv), vehicle: saline", "result": "112 % of control"}, {"measurement": "T/C", "setting": "endpoint: mean survival time, dose: 64.0 mg/kg/injection, schedule: Q03HX008 (ip), vehicle: saline", "result": "117 % of control"}, {"measurement": "T/C", "setting": "endpoint: mean survival time, dose: 64.0 mg/kg/injection, schedule: Q04DX003 (ip), vehicle: saline", "result": "121 % of control"}, {"measurement": "T/C", "setting": "endpoint: mean survival time, dose: 128.0 mg/kg/injection, schedule: Q01DX001 (ip), vehicle: saline", "result": "107 % of control"}, {"measurement": "T/C", "setting": "endpoint: mean survival time, dose: 128.0 mg/kg/injection, schedule: Q01DX001 (iv), vehicle: saline", "result": "103 % of control"}, {"measurement": "T/C", "setting": "endpoint: mean survival time, dose: 128.0 mg/kg/injection, schedule: Q01DX001 (oral), vehicle: saline", "result": "114 % of control"}, {"measurement": "T/C", "setting": "endpoint: mean survival time, dose: 128.0 mg/kg/injection, schedule: Q01DX005 (iv), vehicle: saline", "result": "122 % of control"}, {"measurement": "T/C", "setting": "endpoint: mean survival time, dose: 128.0 mg/kg/injection, schedule: Q01DX009 (oral), vehicle: saline", "result": "164 % of control"}, {"measurement": "T/C", "setting": "endpoint: mean survival time, dose: 128.0 mg/kg/injection, schedule: Q04DX003 (ip), vehicle: saline", "result": "118 % of control"}, {"measurement": "T/C", "setting": "endpoint: mean survival time, dose: 128.0 mg/kg/injection, schedule: Q08DX002 (ip), vehicle: saline", "result": "116 % of control"}, {"measurement": "T/C", "setting": "endpoint: mean survival time, dose: 222.0 mg/kg/injection, schedule: Q01DX Z (ip), vehicle: saline", "result": "162 % of control"}, {"measurement": "T/C", "setting": "endpoint: mean survival time, dose: 256.0 mg/kg/injection, schedule: Q01DX001 (ip), vehicle: saline", "result": "120 % of control"}, {"measurement": "T/C", "setting": "endpoint: mean survival time, dose: 256.0 mg/kg/injection, schedule: Q01DX001 (iv), vehicle: saline", "result": "106 % of control"}, {"measurement": "T/C", "setting": "endpoint: mean survival time, dose: 256.0 mg/kg/injection, schedule: Q01DX001 (oral), vehicle: saline", "result": "117 % of control"}, {"measurement": "T/C", "setting": "endpoint: mean survival time, dose: 256.0 mg/kg/injection, schedule: Q01DX009 (oral), vehicle: saline", "result": "169 % of control"}, {"measurement": "T/C", "setting": "endpoint: mean survival time, dose: 256.0 mg/kg/injection, schedule: Q04DX003 (ip), vehicle: saline", "result": "121 % of control"}, {"measurement": "T/C", "setting": "endpoint: mean survival time, dose: 256.0 mg/kg/injection, schedule: Q08DX002 (ip), vehicle: saline", "result": "123 % of control"}, {"measurement": "T/C", "setting": "endpoint: mean survival time, dose: 333.0 mg/kg/injection, schedule: Q01DX Z (ip), vehicle: saline", "result": "120 % of control"}, {"measurement": "T/C", "setting": "endpoint: mean survival time, dose: 512.0 mg/kg/injection, schedule: Q01DX001 (ip), vehicle: saline", "result": "124 % of control"}, {"measurement": "T/C", "setting": "endpoint: mean survival time, dose: 512.0 mg/kg/injection, schedule: Q01DX001 (iv), vehicle: saline", "result": "114 % of control"}, {"measurement": "T/C", "setting": "endpoint: mean survival time, dose: 512.0 mg/kg/injection, schedule: Q08DX002 (ip), vehicle: saline", "result": "118 % of control"}]}
{"smiles": "Nc1ccc2ccc(N)cc2c1", "values": [{"measurement": "T/C", "setting": "endpoint: median survival time, dose: 25.0 mg/kg/injection, schedule: Q01DX009 (ip), vehicle: saline with Tween-80", "result": "98 % of control"}, {"measurement": "T/C", "setting": "endpoint: median survival time, dose: 50.0 mg/kg/injection, schedule: Q01DX009 (ip), vehicle: saline with Tween-80", "result": "100 % of control"}, {"measurement": "T/C", "setting": "endpoint: median survival time, dose: 100.0 mg/kg/injection, schedule: Q01DX009 (ip), vehicle: saline with Tween-80", "result": "100 % of control"}, {"measurement": "T/C", "setting": "endpoint: median survival time, dose: 200.0 mg/kg/injection, schedule: Q01DX009 (ip), vehicle: saline with Tween-80", "result": "105 % of control"}]}
{"smiles": "CCOC(=O)CC(=O)C(F)(F)F", "values": [{"measurement": "T/C", "setting": "endpoint: mean survival time, dose: 75.0 mg/kg/injection, schedule: Q01DX001 (ip), vehicle: saline", "result": "95 % of control"}, {"measurement": "T/C", "setting": "endpoint: mean survival time, dose: 150.0 mg/kg/injection, schedule: Q01DX001 (ip), vehicle: saline", "result": "97 % of control"}, {"measurement": "T/C", "setting": "endpoint: mean survival time, dose: 300.0 mg/kg/injection, schedule: Q01DX001 (ip), vehicle: saline", "result": "101 % of control"}]}
{"smiles": "Cc1ccc(C(C)C)c(OCCN)c1", "values": [{"measurement": "T/C", "setting": "endpoint: mean survival time, dose: 25.0 mg/kg/injection, schedule: Q04DX002 (ip), vehicle: saline", "result": "94 % of control"}, {"measurement": "T/C", "setting": "endpoint: mean survival time, dose: 50.0 mg/kg/injection, schedule: Q04DX002 (ip), vehicle: saline", "result": "97 % of control"}, {"measurement": "T/C", "setting": "endpoint: mean survival time, dose: 100.0 mg/kg/injection, schedule: Q04DX002 (ip), vehicle: saline", "result": "93 % of control and 97 % of control"}]}
